Measurements taken from patent US8952024B2, “Herbicidal pyrimidone derivatives” (E I du Pont de Nemours and Company, priority 2009, dated 2015).

Assays:
Experiment in all cases: Test B pre-/postemergence plant response
Assay type in all cases: in vivo
[1] = system: galium (catchweed bedstraw, Galium aparine)
How it was run: (§1)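 Visually scored on a 0 to 100 scale after 13 to 15 days in greenhouse versus controls. Treatments were preemergence on seeded loam/sand soil and postemergence on 1- to 4-leaf plants.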

[2] = system: nightshade (eastern black nightshade, Solanum ptycanthum); settings: Preemergence; for Nightshade plant response rating: 250 g ai/ha, 0 to 100 scale
How it was run: as §1

[3] = system: sunflower (common oilseed sunflower, Helianthus annuus); settings: Preemergence; for Sunflower plant response rating: 250 g ai/ha, 0 to 100 scale
How it was run: as §1

[4] = Postemergence, 31 g ai/ha, 0 to 100 scale (0 no effect, 100 complete control)
[5] = Postemergence, 62 g ai/ha, scale 0 to 100 (0 no effect, 100 complete control)
[6] = Postemergence, 125 g ai/ha, scale 0 to 100 (0 no effect, 100 complete control)
[7] = Postemergence, 250 g ai/ha, scale 0 to 100 (0 no effect, 100 complete control), 13 to 15 days
[8] = 250 g ai/ha, Preemergence, 0 to 100 scale
[9] = Preemergence, 31 g ai/ha, scale 0 to 100 (0 no effect, 100 complete control)
[10] = Preemergence, 62 g ai/ha, scale 0 to 100 (0 no effect, 100 complete control)
[11] = Preemergence, 125 g ai/ha, scale 0 to 100, 0 no effect, 100 complete control
[12] = 31 g ai/ha, scale 0 to 100 (0 no effect, 100 complete control)
[13] = 62 g ai/ha, scale 0 to 100 (0 no effect, 100 complete control)
[14] = 125 g ai/ha, scale 0 to 100, 0 no effect, 100 complete control
[15] = Preemergence, 250 g ai/ha, 0 to 100 scale

Cc1cc(-n2c(-c3cccc(F)c3)ncc(C(=O)C3=C(O)CCCC3=O)c2=O)ccc1F [Compound 191]
Plant response rating, Galium [1, 4]: 20 | Plant response rating, Galium [1, 5]: 40 | Plant response rating, Galium [1, 6]: 60 | Plant response rating, Galium [1, 7]: 60

O=C1CCCC(O)=C1C(=O)c1cnc(-c2cccc(Cl)c2)n(-c2ccc(Cl)cc2)c1=O [Compound 64]
Plant response rating, Galium [1, 8]: 70 | Plant response rating, Galium [1, 9]: 0 | Plant response rating, Galium [1, 10]: 0 | Plant response rating, Galium [1, 11]: 30 | Plant response rating, Nightshade [2, 12]: 55 | Plant response rating, Nightshade [2, 13]: 85 | Plant response rating, Nightshade [2, 14]: 95 | Plant response rating, Sunflower [3, 12]: 0 | Plant response rating, Sunflower [3, 13]: 0 | Plant response rating, Sunflower [3, 14]: 0

CCCCc1ncc(C(=O)C2=C(O)CCCC2=O)c(=O)n1-c1cccc(C)c1 [Compound 63]
Plant response rating, Galium [1, 8]: 20 | Plant response rating, Galium [1, 9]: 0 | Plant response rating, Galium [1, 10]: 0 | Plant response rating, Galium [1, 11]: 0 | Plant response rating, Nightshade [2, 12]: 80 | Plant response rating, Nightshade [2, 13]: 95 | Plant response rating, Nightshade [2, 14]: 98 | Plant response rating, Sunflower [3, 12]: 5 | Plant response rating, Sunflower [3, 13]: 15 | Plant response rating, Sunflower [3, 14]: 20

Cn1c(-c2ccccc2)ncc(C(=O)C2=C(O)CCCC2=O)c1=O [Compound 55]
Plant response rating, Galium [1, 8]: 85 | Plant response rating, Galium [1, 9]: 0 | Plant response rating, Galium [1, 10]: 0 | Plant response rating, Galium [1, 11]: 20 | Plant response rating, Nightshade [2, 12]: 60 | Plant response rating, Nightshade [2, 13]: 98 | Plant response rating, Nightshade [2, 14]: 100 | Plant response rating, Sunflower [3, 12]: 10 | Plant response rating, Sunflower [3, 13]: 60 | Plant response rating, Sunflower [3, 14]: 60

O=C1CCCC(O)=C1C(=O)c1cnc(-c2cccc(F)c2)n(C2CCCCC2)c1=O [Compound 187]
Plant response rating, Galium [1, 4]: 20 | Plant response rating, Galium [1, 6]: 55 | Plant response rating, Galium [1, 7]: 85

CCCn1c(-c2cccc(Cl)c2)ncc(C(=O)C2=C(O)CCCC2=O)c1=O [Compound 190]
Plant response rating, Galium [1, 4]: 50 | Plant response rating, Galium [1, 6]: 60 | Plant response rating, Galium [1, 7]: 85

Cc1ccc(Cl)cc1-n1c(-c2cccc(F)c2)ncc(C(=O)C2=C(O)CCCC2=O)c1=O [Compound 184]
Plant response rating, Galium [1, 4]: 50 | Plant response rating, Galium [1, 6]: 60 | Plant response rating, Galium [1, 7]: 60

COCCn1c(-c2cc(F)cc(F)c2)ncc(C(=O)C2=C(O)CCCC2=O)c1=O [Compound 119]
Plant response rating, Galium [1, 9]: 65 | Plant response rating, Galium [1, 10]: 85 | Plant response rating, Galium [1, 11]: 90 | Galium plant response rating [1, 15]: 100 | Plant response rating, Nightshade [2, 12]: 90 | Plant response rating, Nightshade [2, 13]: 98 | Plant response rating, Nightshade [2, 14]: 98 | Nightshade plant response rating [2]: 100 | Plant response rating, Sunflower [3, 12]: 40 | Plant response rating, Sunflower [3, 13]: 60 | Plant response rating, Sunflower [3, 14]: 70 | Sunflower plant response rating [3]: 85

CCc1ccccc1-n1c(-c2ccccc2)ncc(C(=O)C2=C(O)CCCC2=O)c1=O [Compound 255]
Plant response rating, Galium [1, 9]: 0 | Plant response rating, Galium [1, 10]: 50 | Plant response rating, Galium [1, 11]: 60 | Galium plant response rating [1, 15]: 100 | Plant response rating, Nightshade [2, 12]: 75 | Plant response rating, Nightshade [2, 13]: 90 | Plant response rating, Nightshade [2, 14]: 100 | Nightshade plant response rating [2]: 100 | Plant response rating, Sunflower [3, 12]: 45 | Plant response rating, Sunflower [3, 13]: 60 | Plant response rating, Sunflower [3, 14]: 75 | Sunflower plant response rating [3]: 90

O=C1CCCC(O)=C1C(=O)c1cnc(-c2ccsc2)n(-c2ccccc2)c1=O [Compound 56]
Plant response rating, Galium [1, 8]: 85 | Plant response rating, Galium [1, 9]: 0 | Plant response rating, Galium [1, 10]: 0 | Plant response rating, Galium [1, 11]: 60 | Plant response rating, Nightshade [2, 12]: 85 | Plant response rating, Nightshade [2, 13]: 98 | Plant response rating, Nightshade [2, 14]: 98 | Plant response rating, Sunflower [3, 12]: 0 | Plant response rating, Sunflower [3, 13]: 60 | Plant response rating, Sunflower [3, 14]: 65

COCCCn1c(-c2cc(F)cc(F)c2)ncc(C(=O)C2=C(O)CCCC2=O)c1=O [Compound 120]
Plant response rating, Galium [1, 9]: 80 | Plant response rating, Galium [1, 10]: 90 | Plant response rating, Galium [1, 11]: 95 | Galium plant response rating [1, 15]: 98 | Plant response rating, Nightshade [2, 12]: 90 | Plant response rating, Nightshade [2, 13]: 95 | Plant response rating, Nightshade [2, 14]: 95 | Nightshade plant response rating [2]: 98 | Plant response rating, Sunflower [3, 12]: 45 | Plant response rating, Sunflower [3, 14]: 85 | Sunflower plant response rating [3]: 95

CCc1ccc(-n2c(-c3ccccc3)ncc(C(=O)C3=C(O)CCCC3=O)c2=O)cc1 [Compound 219]
Plant response rating, Galium [1, 9]: 75 | Plant response rating, Galium [1, 10]: 85 | Plant response rating, Galium [1, 11]: 98 | Galium plant response rating [1, 15]: 100 | Plant response rating, Nightshade [2, 12]: 90 | Plant response rating, Nightshade [2, 13]: 98 | Plant response rating, Nightshade [2, 14]: 100 | Nightshade plant response rating [2]: 100 | Plant response rating, Sunflower [3, 12]: 0 | Plant response rating, Sunflower [3, 13]: 45 | Plant response rating, Sunflower [3, 14]: 80 | Sunflower plant response rating [3]: 85

Cc1cc(-n2c(-c3ccccc3)ncc(C(=O)C3=C(O)CCCC3=O)c2=O)ccc1F [Compound 53]
Plant response rating, Galium [1, 8]: 90 | Plant response rating, Galium [1, 9]: 0 | Plant response rating, Galium [1, 10]: 0 | Plant response rating, Galium [1, 11]: 0 | Plant response rating, Nightshade [2, 12]: 98 | Plant response rating, Nightshade [2, 13]: 98 | Plant response rating, Nightshade [2, 14]: 100 | Plant response rating, Sunflower [3, 12]: 15 | Plant response rating, Sunflower [3, 13]: 55 | Plant response rating, Sunflower [3, 14]: 65

CCCc1ncc(C(=O)C2=C(O)CCCC2=O)c(=O)n1-c1ccccc1C [Compound 73]
Plant response rating, Galium [1, 8]: 85 | Plant response rating, Galium [1, 10]: 30 | Plant response rating, Galium [1, 11]: 80 | Plant response rating, Nightshade [2, 12]: 75 | Plant response rating, Nightshade [2, 13]: 95 | Plant response rating, Nightshade [2, 14]: 98 | Plant response rating, Sunflower [3, 12]: 0 | Plant response rating, Sunflower [3, 13]: 20 | Plant response rating, Sunflower [3, 14]: 70

5-[(2-hydroxy-6-oxo-1-cyclohexen-1-yl)carbonyl]-2,3-diphenyl-4(3H)-pyrimidinone [Compound 2]
Sunflower plant response rating (0 to 100 scale) ([3]; 0 is no effect, 100 is complete control, rated after 13 to 15 days, application rate of this section not shown): 0

CCCc1ncc(C(=O)C2=C(O)CCCC2=O)c(=O)n1CC1CCCO1 (stereo not shown) [Compound 74]
Plant response rating, Galium [1, 9]: 20 | Plant response rating, Galium [1, 10]: 30 | Plant response rating, Galium [1, 11]: 40 | Galium plant response rating [1, 15]: 98 | Plant response rating, Nightshade [2, 12]: 85 | Plant response rating, Nightshade [2, 13]: 98 | Plant response rating, Nightshade [2, 14]: 98 | Nightshade plant response rating [2]: 100 | Plant response rating, Sunflower [3, 12]: 0 | Plant response rating, Sunflower [3, 13]: 55 | Plant response rating, Sunflower [3, 14]: 70 | Sunflower plant response rating [3]: 85

CCCCc1ncc(C(=O)C2=C(O)CCCC2=O)c(=O)n1-c1ccc(C)cc1 [Compound 67]
Plant response rating, Galium [1, 8]: 90 | Plant response rating, Galium [1, 9]: 0 | Plant response rating, Galium [1, 10]: 35 | Plant response rating, Galium [1, 11]: 85 | Plant response rating, Nightshade [2, 12]: 70 | Plant response rating, Nightshade [2, 13]: 95 | Plant response rating, Nightshade [2, 14]: 95 | Plant response rating, Sunflower [3, 12]: 0 | Plant response rating, Sunflower [3, 13]: 20 | Plant response rating, Sunflower [3, 14]: 35

O=C1CCCC(O)=C1C(=O)c1cnc(-c2cccs2)n(C2CCCCC2)c1=O [Compound 189]
Plant response rating, Galium [1, 4]: 20 | Plant response rating, Galium [1, 6]: 85 | Plant response rating, Galium [1, 7]: 85

COc1ccc(-n2c(-c3ccccc3)ncc(C(=O)C3=C(O)CCCC3=O)c2=O)cc1OC [Compound 218]
Plant response rating, Galium [1, 9]: 60 | Plant response rating, Galium [1, 10]: 80 | Plant response rating, Galium [1, 11]: 95 | Galium plant response rating [1, 15]: 100 | Plant response rating, Nightshade [2, 12]: 98 | Plant response rating, Nightshade [2, 13]: 98 | Plant response rating, Nightshade [2, 14]: 100 | Nightshade plant response rating [2]: 100 | Plant response rating, Sunflower [3, 12]: 75 | Plant response rating, Sunflower [3, 13]: 80 | Plant response rating, Sunflower [3, 14]: 90 | Sunflower plant response rating [3]: 95

CCCn1c(-c2cccs2)ncc(C(=O)C2=C(O)CCCC2=O)c1=O [Compound 77]
Plant response rating, Galium [1, 9]: 0 | Plant response rating, Galium [1, 10]: 20 | Plant response rating, Galium [1, 11]: 85 | Galium plant response rating [1, 15]: 90 | Plant response rating, Nightshade [2, 12]: 98 | Plant response rating, Nightshade [2, 13]: 98 | Plant response rating, Nightshade [2, 14]: 98 | Nightshade plant response rating [2]: 100 | Plant response rating, Sunflower [3, 12]: 60 | Plant response rating, Sunflower [3, 13]: 75 | Plant response rating, Sunflower [3, 14]: 75 | Sunflower plant response rating [3]: 85

O=C1CCCC(O)=C1C(=O)c1cnc(-c2ccc(F)cc2)n(C2CCCCC2)c1=O [Compound 197]
Plant response rating, Galium [1, 4]: 75 | Plant response rating, Galium [1, 5]: 75 | Plant response rating, Galium [1, 7]: 80
